In series [1] the test system is C. neoformans wild type strain H99. As to the kind of experiment: microbe, parasite or virus in culture. As to conditions: for MIC / MIC ug/mL H99: alone. Format: cell-based, Cryptococcus neoformans. As to the method: The assays followed standard CLSI protocol for broth microdilution assays using yeasts.(32) Microbes were passaged in YPD media at 37° C. with mixing for 2 days before harvesting with an inoculation loop to prepare monocultures on Sabouraud Dextrose Agar (SDA) plates. Monocultures on SDA plates were incubated for 2 days at 37° C. before harvesting cells for microdilution assays. RPMI media (100 μL) was charged to each of the 96 wells in a 96 well plate, with an additional 100 μL in the first column. […] The 100 μL was serially diluted by a factor of 2 from the first column to the 11th column. Microbe inoculant was then prepared. An inoculation loop was used to transfer 1-3 colonies of cells to 1 mL phosphate buffer solution (PBS). The PBS and microbe solution was made uniform by vortex mixing. Cell concentration was computed by comparing the absorbance at 530 nm to 1× McFarland standard solution and multiplying the resulting ratio by 10^7 cell/mL conversion factor. Plate inoculant was prepared by diluting the PBS microbe solution to 5000 cell/mL, in RPMI media. A 100 μL aliquot of cells was transferred to each of the wells on the plate other than column 11 for the no growth control. The operating volume was 200 μL, with 500 CFU per well for a final concentration of 2.5*10^3 cells/mL.

The test system of series [2] is C. neoformans cells. As to the kind of experiment: AF350-Annexin V / propidium iodine flow cytometry assay (exofacial phosphatidylserine). Format: cell-based, Cryptococcus neoformans. Particulars: 0.128 mg/mL peptide, 20 minutes at 25° C.; control 0.2±0.1%. The method, then: Stock microbes were defrosted from the −80° C. freezer and were passed twice for 48 hours each in YPD media. The YPD media was removed by spinning down and the supernatant was decanted. Pelletized cells were resuspended in 1 mL PBS media and washed for 5 minutes with incubation at 25° C. and 250 RPM. Washed cells were spun down again and suspended in 1 mL of PBS solution. cells were diluted 20-fold into 1 mL fungal working solution in an eppendorf. Cell concentration was quantified via comparison to 1× McFarlain's standard on a plate reader using the absorbance value at 530 nm. An aliquot of 1*10^6 cells in 100 μL was created (1*10^7 cell/mL). […] The cells were incubated for 20 minutes at 25° C. and 250 RPM. Baseline and experimental samples were prepared in triplicate. Cells were stained using an operating concentration of 0.001 mg/mL Propidium Iodine (PI) and a 40-fold dilution of AlexaFluor 350 labelled annexin V as per manufactures instructions. After staining the cells, samples were spun down and supernatant decanted. Cells were then fixed in 4% formaldehyde for 5 minutes. Fixed cells were spun down and supernatant decanted and resuspended in 400 μL 1% formaldehyde for flowcytometry. Samples were collected at a slow flow rate on a MACS Quant 10 device (Miltenyi Biotech, Auburn, CA) with 20,000 events collected per injection.
It was sought to determine whether the activities of the peptides were related to the lipid-flipping activity of the P4-ATPase. […] The intensity of the AF350-annexin V signal corresponds to concentration of PS on the exofacial side of the membrane. The propidium iodine signal corresponds to cell viability.
Single cells were first selected and gated based on morphology to ensure homogeneity among the cell population (4A, 4B). Cells with low propidium iodine intensity (PI-A<9 RU) and high AF350-annexin V intensity (Annexin V-A>9 RU) (4C, 4D) were examined. Under these gating parameters there should be, respectively, low non-specific cell death and high exofacial PS.

Series [3] has as its system C. neoformans cdc50Δ mutant strain. The series is classed as cell-based, Cryptococcus neoformans. As to conditions: alone. The method, then:
The assays followed standard CLSI protocol for broth microdilution assays using yeasts.(32) Microbes were passaged in YPD media at 37° C. with mixing for 2 days before harvesting with an inoculation loop to prepare monocultures on Sabouraud Dextrose Agar (SDA) plates. Monocultures on SDA plates were incubated for 2 days at 37° C. before harvesting cells for microdilution assays. RPMI media (100 μL) was charged to each of the 96 wells in a 96 well plate, with an additional 100 μL in the first column. Peptide-DMSO solution (4 μL) at 12.8 mg/mL was charged to each of the wells in the first column. The 100 μL was serially diluted by a factor of 2 from the first column to the 11th column. Microbe inoculant was then prepared. An inoculation loop was used to transfer 1-3 colonies of cells to 1 mL phosphate buffer solution (PBS). The PBS and microbe solution was made uniform by vortex mixing. Cell concentration was computed by comparing the absorbance at 530 nm to 1× McFarland standard solution and multiplying the resulting ratio by 10^7 cell/mL conversion factor. Plate inoculant was prepared by diluting the PBS microbe solution to 5000 cell/mL, in RPMI media. A 100 μL aliquot of cells was transferred to each of the wells on the plate other than column 11 for the no growth control. The operating volume was 200 μL, with 500 CFU per well for a final concentration of 2.5*10^3 cells/mL.

For series [4], the system named is C. neoformans wild type strain H99. As to conditions: earlier mutation study; cited from earlier work.
Series [5] has as its system C. neoformans cdc50Δ mutant strain. As to conditions: earlier mutation study / literature; cited from earlier work.
Series [6] has the same test system. Format: cell-based, Cryptococcus neoformans. Particulars: for FIC ug/mL ΔCDC50 Peptide: concentration of the peptide in combination with caspofungin; for FIC Index ΔCDC50: peptide with caspofungin, ΔCDC50 (table S1). As to the method:
The Fractional Inhibitory Concentration Index were calculated as follows: […]

The test system of series [7] is C. neoformans H99. As to the kind of experiment: SDS and plate spotting assay. Format: cell-based, Cryptococcus neoformans. Particulars: H99 pre-treated with peptide at 128 for one hour; versus untreated or DMSO controls.
Description: To test cell integrity, C. neoformans strains from 3 ml YPD overnight cultures were washed, resuspended, and serially diluted (1:10) in dH2O and spotted (5 μl) on YPD agar plates or YPD agar plates containing 0.03% SDS and incubated for 2 days at 30° C. and 37° C.
Of each strain, yeast cells were inoculated into liquid YPD with 128 μg/ml or 64 μg/ml peptide and co-incubated for 1 h at 30° C. And then, ten-fold serial dilutions were prepared, and 5 μl of each was spotted on YPD and YPD agar plates containing 0.03% SDS. The results were photographed after a 48 h incubation. Their growth was determined by serial dilutions and the fungal colonies were assessed by CFU numbers.
Briefly, cultures of C. neoformans were grown in YPD and then spotted on YPD plates containing 0.03% SDS.
Series [8] deals with C. neoformans wild type strain H99. Particulars: for FIC ug/mL H99 Peptide: concentration of the peptide in combination with caspofungin.
Description: Microbes were prepared in the same manner as the MIC assay. […] 100 μL of RPMI media was added to the first 8 wells in the first row. […] The 100 μL of media with drug was serially diluted from the first row to the final row. […] Column 11 was the no growth control, and 12 was the no drug control. The plate was inoculated with microbes in the same manner as the MIC assay. Again, 200 uL was the operating volume, 500 CFU per well, 2.5*10^3 cell/mL. Plates were incubated for 48 hours at 37° C. and read thereafter. The Fractional Inhibitory Concentration Index were calculated as follows:
Where the MICA and MICB are the MIC values of drugs A and B alone and FICA and FICB are the Fractional Inhibitory concentrations of drugs A and B in the presence of each other, respectively.
In series [9] the test system is human red blood cells (RBCs). Particulars: 1 hour 37° C.; relative to Triton X-100 control.
Description: Hemolysis assays were preformed using human red blood cells (RBCs), which were provided by Interstate Blood Bank (Philadelphia, PA) and stored immediately at 4° C. upon arrival. […] Free heme was extracted from stored RBCs washing in PBS with gentle centrifugation at 1000 RPM for 5 minutes. Washed cells resuspended to 4 mL in PBS and counted using a hemocytometer. […] Red blood cells were adjusted to 5*10^8 cells/mL and 50 uL was added to each of the wells. Operating conditions were 100 μL and 2.5*10^8 cell/mL. The positive control used as 2 μL of 1% Triton X-100. The plate was incubated at 37° C. for 1 hour. The resulting plate was spun down at 1000 RPM for 5 minutes. 20 μL supernatant was transferred to 80 μL PBS in a fresh 96 well plate for analysis (operating volume 100 μL.) A Spectra Max 340 plate reader (Molecular Devices, Sunnyvale, CA) was used to measure the absorbance of the analysis plate at 410 nm. The scans were run in triplicate. Averages and standard deviations between scans and replicates were computed. The negative control was subtracted from all the data points. The resulting corrected data was normalized by the corrected positive control.
Where [10] appears, read: against C. neoformans H99 wild type.
Setting [11] is: wild-type H99, read at 24 and 48 hours, 37° C.

≈ marks a conversion by molar mass, not a printed value. Like-named read-outs stand apart in the source and are kept apart here. Where a SMILES comes first, the peptide text is derived from it. The star is where a group is joined. Myristoyl = CCCCCCCCCCCCCC(=O)*

Turning to `CCCCCCCCCCCCCC(=O)N[C@@H](Cc1c[nH]c2ccccc12)C(=O)NCC(=O)NCC(=O)N[C@H](C(=O)N[C@@H](C)C(=O)N[C@@H](C)C(=O)N[C@@H](CC(N)=O)C(=O)N[C@@H](Cc1ccc(O)cc1)C(=O)N[C@@H](C)C(=O)O)[C@@H](C)CC` [K5A;K6A-Ma] (Myristoyl-WGGIAANYA-OH), the “MIC” value in series [1] (setting [10]) was over 128 µg/mL. Moreover, in series [2], the “percentage of cells with low propidium iodine intensity (PI-A<9 RU) and high AF350-annexin V intensity (Annexin V-A>9 RU)” value (“percentage of cells” below) turned out to be 1.3±0.9%.

As for `CCCCCCCCCCCCCC(=O)N[C@@H](Cc1c[nH]c2ccccc12)C(=O)NCC(=O)NCC(=O)N[C@H](C(=O)N[C@@H](C)C(=O)N[C@@H](CCCCN)C(=O)N[C@@H](CC(N)=O)C(=O)N[C@@H](Cc1ccc(O)cc1)C(=O)N[C@@H](C)C(=O)O)[C@@H](C)CC` [Peptide K5A-Ma] (Myristoyl-WGGIAKNYA-OH), the “MIC” value in series [1] (setting [10]) is over 128 µg/mL. In series [2], the “percentage of cells” value is recorded as 5.6±0.1%.

For `CC[C@H](C)C[C@H](C)CCCCCCCCC(=O)N[C@H]1C[C@@H](O)[C@@H](NCCN)NC(=O)[C@@H]2[C@@H](O)CCN2C(=O)[C@H]([C@H](O)CCN)NC(=O)[C@H]([C@H](O)[C@@H](O)c2ccc(O)cc2)NC(=O)[C@@H]2C[C@@H](O)CN2C(=O)[C@H]([C@@H](C)O)NC1=O` [Caspofungin, reference compound], in [1] (Cryptococcus neoformans, wild-type H99, read at 24 and 48 hours, 37° C., read-out: MIC ug/mL H99), the MIC turned out to be 16 µg/mL (≈ 14.6 µM). In addition, in [3], the “MIC ug/mL ΔCDC50” value came to 4 µg/mL (≈ 3.66 µM). Also, in series [4], the “MIC of caspofungin in wild-type strain H99” value is 16 µg/mL. Further, in series [5], the “MIC of caspofungin in cdc50Δ” value is 4 µg/mL.

`CCCCCCCCCCCCCC(=O)N[C@@H](Cc1c[nH]c2ccccc12)C(=O)NCC(=O)NCC(=O)N[C@H](C(=O)N[C@@H](CCCCN)C(=O)N[C@@H](CCCCN)C(=O)N[C@@H](CC(N)=O)C(=O)N[C@@H](Cc1ccc(O)cc1)C(=O)N[C@@H](C)C(=O)O)[C@@H](C)CC` [AW9-Ma] (Myristoyl-WGGIKKNYA-OH): the “MIC ug/mL H99” value in series [1] (setting [11]) was found to be 64 µg/mL (≈ 51.3 µM). For the same compound, the “MIC ug/mL ΔCDC50” value in [3] was determined as 2 µg/mL (≈ 1.6 µM). In addition, the “FIC ug/mL ΔCDC50 Peptide” value in series [6] was found to be 0.125 µg/mL. The “percentage of cells” value in series [2] is recorded as 67.6%±2.3. The “growth (colony forming units) on agar medium with 0.03% SDS” value in series [7] is listed as “significantly reduced growth”. Further, the “MIC of caspofungin in the presence of the AW9-Ma peptide” value in series [8] (C. neoformans wild type) was found to be 4 µg/mL. In series [8] (H99), the “FIC ug/mL H99 Peptide” value stood at 16 µg/mL. Besides, the “hemolysis of human RBC” value in series [9] is reported as “low amounts of hemolysis”.

For `CCCCCCCCCCCCCC(=O)N[C@@H](Cc1ccc(O)cc1)C(=O)N[C@H](C(=O)N[C@@H](CC(=O)O)C(=O)NCC(=O)N[C@@H](Cc1ccccc1)C(=O)N1CCC[C@H]1C(=O)N[C@@H](CC(N)=O)C(=O)N[C@@H](CC(C)C)C(=O)N[C@@H](CCCNC(=N)N)C(=O)N[C@@H](CCC(=O)O)C(=O)N[C@@H](CC(=O)O)C(=O)N[C@@H](CCC(=O)O)C(=O)N[C@@H](Cc1c[nH]cn1)C(=O)N[C@@H](Cc1ccccc1)C(=O)N[C@@H](CCC(N)=O)C(=O)O)C(C)C` [QY15-Ma] (Myristoyl-YVDGFPNLREDEHFQ-OH), the “MIC ug/mL H99” value in series [1] (setting [11]) was over 128 µg/mL. Also, the “MIC ug/mL ΔCDC50” value in series [3] worked out at 128 µg/mL (≈ 61.6 µM). In [6], the “FIC ug/mL ΔCDC50 Peptide” value came out at 0.5 µg/mL and the “FIC Index ΔCDC50” value stood at 0.25. Also, the “FIC ug/mL H99 Peptide” value in series [8] (H99) was 0.5 µg/mL.

As to H-SESGIAWGGIKKNYA-OH [AS15], the “growth in MIC plate wells compared to the no drug control” value in series [1] (visual inspection of the MIC plates, H99) is “stronger and more confluent growth”. Moreover, in [1] (setting [11]), the “MIC ug/mL H99” value is over 128 µg/mL. For the same compound, the “MIC ug/mL ΔCDC50” value in series [3] is 128 µg/mL. For the same compound, in [6], the “FIC ug/mL ΔCDC50 Peptide” value came to 0.5 µg/mL and the “FIC Index ΔCDC50” value is 0.25. Besides, the “FIC ug/mL H99 Peptide” value in series [8] (H99) is 0.5 µg/mL.

Take `CCCCCCCCCCCCCC(=O)N[C@@H](CO)C(=O)N[C@@H](CCC(=O)O)C(=O)N[C@@H](CO)C(=O)NCC(=O)N[C@H](C(=O)N[C@@H](C)C(=O)N[C@@H](Cc1c[nH]c2ccccc12)C(=O)NCC(=O)NCC(=O)N[C@H](C(=O)N[C@@H](CCCCN)C(=O)N[C@@H](CCCCN)C(=O)N[C@@H](CC(N)=O)C(=O)N[C@@H](Cc1ccc(O)cc1)C(=O)N[C@@H](C)C(=O)O)[C@@H](C)CC)[C@@H](C)CC` [AS15-Ma] (Myristoyl-SESGIAWGGIKKNYA-OH): the “MIC ug/mL H99” value in series [1] (setting [11]) was over 128 µg/mL. Moreover, in series [3], the “MIC ug/mL ΔCDC50” value worked out at 8 µg/mL (≈ 4.47 µM). In series [6], the “FIC ug/mL ΔCDC50 Peptide” value stood at 0.25 µg/mL and the “FIC Index ΔCDC50” value was determined as 0.094. Moreover, the “percentage of cells” value in series [2] is on record as 12.1±2.0%. In series [8] (0.5 μg/mL peptide, H99, caspofungin alone 16 μg/mL), the “MIC of caspofungin in the presence of peptide” value came out at 8 µg/mL. The “FIC ug/mL H99 Peptide” value in [8] (H99) was 0.5 µg/mL. In addition, in series [8] (peptide with caspofungin, H99 (table S1)), the “FIC Index H99” value is given as 0.5-1.

The values are drawn from patent US11939402B2, “Antifungal peptides, compounds including the same, and methods of use thereof” (priority 2022, dated 2024).
